Measurements published in the supplement of paper PMC11061612.

Assays:
Test in all cases: combination Emax (second highest fraction inhibited in the dose matrix, 72 h); higher = more inhibition; extreme values may be limits of the assay
[1] = system: KY821 (Acute Myeloid Leukemia)
Procedure, shortened: (§1)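 Bliss excess equals the observed combination effect minus the expected value EA + EB − EA·EB, where EA and EB are the effects of each agent alone. Combination Emax is the second-highest inhibition within the matrix. Inhibition was scaled from CellTiter-Glo 2.0 luminescence, with 0 set by vehicle wells and 1 by blank wells, after 72 hours of two-drug dosing of cells plated in 1536-well plates.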

[2] = system: NCI-H3122 (Lung Adenocarcinoma)
Procedure, shortened: as §1

[3] = system: COR-L279 (Small Cell Lung Carcinoma)
Procedure, shortened: as §1

[4] = system: MN-60 (B-Lymphoblastic Leukemia)
Procedure, shortened: as §1

[5] = system: CHSA8926 (Chondrosarcoma)
Procedure, shortened: as §1

M059J (Glioblastoma) = system: M059J (Glioblastoma)
Procedure, shortened: as §1

[6] = system: KYSE-270 (Esophageal Squamous Cell Carcinoma)
Procedure, shortened: as §1

[7] = system: MOG-G-CCM (Low Grade Glioma)
Procedure, shortened: as §1

[8] = system: CW-2 (Colorectal Carcinoma)
Procedure, shortened: as §1

[9] = system: KU812 (Chronic Myelogenous Leukemia)
Procedure, shortened: as §1

SJSA-1 (Osteosarcoma) = system: SJSA-1 (Osteosarcoma)
Procedure, shortened: as §1

[10] = system: VMRC-RCZ (Kidney Carcinoma)
Procedure, shortened: as §1

[11] = system: NCI-H520 (Squamous Cell Lung Carcinoma)
Procedure, shortened: as §1

[12] = system: SK-GT-4 (Esophageal Adenocarcinoma)
Procedure, shortened: as §1

[13] = system: DMS-114 (Small Cell Lung Carcinoma)
Procedure, shortened: as §1

[14] = system: IM-95 (Gastric Carcinoma)
Procedure, shortened: as §1

[15] = system: NCI-H661 (Non-Small Cell Lung Carcinoma)
Procedure, shortened: as §1

[16] = system: ST486 (Burkitt's Lymphoma)
Procedure, shortened: as §1

[17] = system: NCI-H929 (Plasma Cell Myeloma)
Procedure, shortened: as §1

[18] = system: SU-DHL-5 (B-Cell Non-Hodgkin's Lymphoma)
Procedure, shortened: as §1

Row | SMILES | combination Emax [1] | combination Emax [2] | combination Emax [3] | combination Emax [4] | combination Emax [5] | combination Emax (M059J (Glioblastoma)) | combination Emax [6] | combination Emax [7] | combination Emax [8] | combination Emax [9] | combination Emax (SJSA-1 (Osteosarcoma)) | combination Emax [10] | combination Emax [11] | combination Emax [12] | combination Emax [13] | combination Emax [14] | combination Emax [15] | combination Emax [16] | combination Emax [17] | combination Emax [18]
1 | CN(C)CCCOc1ccc(-c2ccc3ncc4c(c3c2)n(C2CCOCC2)c(=O)n4C)cn1 [AZD0156] + C[C@@H]1COCCN1C2=NC(=NC(=C2)C3(CC3)[S@](=N)(=O)C)C4=C5C=CNC5=NC=C4 [AZD6738] (first compound max 1 µM, 7x7, partner max 10 µM) | 0.966 | 0.746 | 0.694 | 0.402 | 0.336 | 0.637 | 0.914 | 0.413 | 0.543 | 0.735 | 0.325 | 0.232 | 0.682 | 0.661 | 0.515 | 0.339 | 0.486 | 0.948 | 0.778 | 1
2 | CN(CCO)CC[C@H](CSc1ccccc1)Nc1ccc(S(=O)(=O)NC(=O)c2ccc(N3CCC([C@@H](O)c4ccccc4-c4ccc(Cl)cc4)CC3)cc2)cc1S(=O)(=O)C(F)(F)F [AZD4320] + Cc1cc2ncnn2cc1Nc1ncc2c(n1)n(C1CCOCC1)c(=O)n2C [AZD7648] (first compound max 1 µM, 7x7, partner max 10 µM) | 1 | 0.305 | 0.976 | 0.226 | 0.688 | 0.386 | 0.0273 | 0.558 | 0.154 | 0.872 | 0.283 | 0.0798 | 0.541 | 0.321 | 0.321 | 0.6 | 0.0745 | 0.959 | 0.737 | 0.797
3 | CC1(C)CCC(CN2CCN(c3ccc(C(=O)NS(=O)(=O)c4ccc(NCC5CCOCC5)c([N+](=O)[O-])c4)c(Oc4cnc5[nH]ccc5c4)c3)CC2)=C(c2ccc(Cl)cc2)C1 [Venetoclax] + C[C@@H]1COCCN1C2=NC(=NC(=C2)C3(CC3)[S@](=N)(=O)C)C4=C5C=CNC5=NC=C4 [AZD6738] (first compound max 1 µM, 7x7, partner max 10 µM) | 1 | 0.652 | 0.833 | 0.456 | 0.469 | 0.526 | 0.869 | 0.538 | 0.403 | 0.83 | 0.478 | 0.434 | 0.654 | 0.589 | 0.564 | 0.169 | 0.654 | 0.861 | 0.78 | 1
4 | Cc1c2c(nn1C)CSCc1cc(n(C)n1)CSc1cc(c3ccccc3c1)OCCCc1c(C(=O)O)n(C)c3c-2c(Cl)ccc13 [AZD5991] + Cc1cc2ncnn2cc1Nc1ncc2c(n1)n(C1CCOCC1)c(=O)n2C [AZD7648] (first compound max 1 µM, 7x7, partner max 10 µM) | 1 | 0.442 | 0.468 | 0.15 | 0.515 | 0.468 | 0.508 | 0.302 | 0.223 | 0.848 | 0.361 | 0.191 | 0.567 | 0.327 | 0.692 | 0.788 | 0.419 | 0.841 | 1 | 1
5 | NC1(C(=O)N[C@@H](CCO)c2ccc(Cl)cc2)CCN(c2ncnc3[nH]ccc23)CC1 [Capivasertib] + CC(C)n1c(=O)n(C)c2cnc3cc(F)c(-c4ccc(OCCCN5CCCCC5)nc4)cc3c21 [AZD1390] (first compound max 10 µM, 7x7, partner max 0.3 µM) | 0.547 | 0.509 | 0.602 | 0.44 | 0.379 | 0.512 | 0.415 | 0.485 | 0.274 | 0.48 | 0.406 | 0.372 | 0.699 | 0.506 | 0.442 | 0.333 | 0.245 | 0.215 | 1 | 1
6 | NC1(C(=O)N[C@@H](CCO)c2ccc(Cl)cc2)CCN(c2ncnc3[nH]ccc23)CC1 [Capivasertib] + COc1nnc2ccc(N3CCC(c4ccc(OCCN5CCN(C)C(=O)[C@H]5C)cc4)CC3)nn12 [AZD5153] (first compound max 10 µM, 7x7, partner max 1 µM) | 1 | 0.738 | 1 | 0.848 | 0.48 | 0.682 | 0.466 | 0.834 | 0.559 | 0.931 | 0.727 | 0.487 | 0.806 | 0.758 | 0.529 | 0.562 | 0.454 | 0.91 | 1 | 1
